These results are taken from patent US6391338B1, “System for rendering substantially non-dissoluble bio-affecting agents bio-available” (Biovail Technologies Ltd., priority 1995, dated 2002).

A short description of this series: Ibuprofen concentration in 0.1 N HCl by HPLC UV. It counts as physicochemical. The settings on record: 1 g solid dispersion (=200 mg ibuprofen) or raw drug in 900 mL 0.1 N HCl, stirred at 100 rpm for 0.5 h. As to the method:
(§1) Samples were taken and ibuprofen concentration was measured by HPLC UV.
as §1

Compound `CC(C)Cc1ccc(C(C)C(=O)O)cc1` (stereo not shown) [ibuprofen] registered an ibuprofen concentration of 0.030 µg/mL.
